Source: patent US10538520B2, “Benzamide and nicotinamide compounds and methods of using same” (OncoTartis Inc., priority 2013, dated 2020)

Legend:
[1] = system: MV4-11; experiment: Cytotoxicity towards MV4-11 cell line; type: cell-based; details: Homo sapiens
Experimental: (§1) In various embodiments, the compounds of the disclosure are those in which show IC50 values in cytotoxicity experiments towards cells lines MV4-11 and U937 of >20 μM, 10-20 μM, 5-10 μM, 1-5 μM, or <1 μM.
(§2) The IC50 is divided into 5 categories: A<1 μM, B 1-5 μM, C 5-10 μM, D 10-20 μM, and E>20 μM.

[2] = system: U-937; experiment: Cytotoxicity towards U-937 cell line; type: cell-based; details: Homo sapiens
Experimental: as §1, §2

Question: O=C(NCCCn1ccnc1)c1ccc(CN2CCc3ccccc3C2)cc1 [TT-01902] was tested. Which IC50 [1] did it give?
Answer: The IC50 was 10000 to 20000 nM.

Question: And the IC50 [2]?
Answer: The IC50 was 5000 to 10000 nM.

Question: How did the IC50 [1] turn out when O=C(NCCCn1ccnc1)c1ccc(N2CCCC2)c(C#Cc2ccccc2)c1 [TT-02683] was run?
Answer: Its IC50 is < 1000 nM.

Question: And the IC50 [2]?
Answer: Its IC50 is < 1000 nM.

Question: For O=C(NCc1cccnc1)c1ccc(-n2cccn2)c(C#Cc2ccccc2)c1 [TT-02684], which IC50 [1] is on record?
Answer: Its IC50 is < 1000 nM.

Question: What about the IC50 [2] of the same compound?
Answer: The IC50 was < 1000 nM.

Question: With O=C(NCCc1c[nH]cn1)c1ccc(-n2cccn2)c(C#Cc2ccccc2)c1 [TT-02686] as the compound, how does the IC50 [1] read?
Answer: The IC50 was 5000 to 10000 nM.

Question: What about the IC50 [2] of the same compound?
Answer: The IC50 was 10000 to 20000 nM.

Question: Cc1nccn1CCCNC(=O)c1ccc(-n2cccn2)c(C#Cc2ccccc2)c1 [TT-02689] was tested. Which IC50 [1] did it give?
Answer: Its IC50 is 1000 to 5000 nM.

Question: What about the IC50 [2] of the same compound?
Answer: Its IC50 is 1000 to 5000 nM.

Question: For O=C(Nc1ccc(Cn2ccnc2)cc1)c1ccc(-n2cccn2)c(C#Cc2ccccc2)c1 [TT-02690], which IC50 [1] is on record?
Answer: The IC50 was 5000 to 10000 nM.

Question: And the IC50 [2]?
Answer: The IC50 was 10000 to 20000 nM.

Question: Which results are given for Cc1cc(SCCNC(=O)c2ccc(-n3cccn3)c(C#Cc3ccccc3)c2)[nH]n1 [TT-02691]?
Answer: IC50 [1]: 10000 to 20000 nM; IC50 [2]: 5000 to 10000 nM

Question: Which results are given for Cc1ccn(CCNC(=O)c2ccc(-n3cccn3)c(C#Cc3ccccc3)c2)n1 [TT-02692]?
Answer: IC50 [1]: > 20000 nM; IC50 [2]: < 1000 nM

Question: For O=C(NCCn1ccnc1)c1ccc(-n2cccn2)c(C#Cc2ccccc2)c1 [TT-02694], which IC50 [1] is on record?
Answer: The IC50 was > 20000 nM.

Question: What about the IC50 [2] of the same compound?
Answer: The IC50 was < 1000 nM.

Question: With O=C(NCCCn1ccnc1)c1ccc(-n2cccn2)c(C#Cc2ccccn2)c1 [TT-02695] as the compound, how does the IC50 [1] read?
Answer: Its IC50 is < 1000 nM.

Question: And the IC50 [2]?
Answer: Its IC50 is < 1000 nM.

Question: How did the IC50 [1] turn out when O=C(NCCc1nccs1)c1ccc(-n2cccn2)c(C#Cc2ccccc2)c1 [TT-02707] was run?
Answer: Its IC50 is > 20000 nM.

Question: What about the IC50 [2] of the same compound?
Answer: Its IC50 is < 1000 nM.

Question: With O=C(NCCCn1cccn1)c1ccc(-n2cccn2)c(C#Cc2ccccc2)c1 [TT-02709] as the compound, how does the IC50 [1] read?
Answer: Its IC50 is > 20000 nM.

Question: And the IC50 [2]?
Answer: The IC50 was < 1000 nM.

Question: Which IC50 [1] does the source give for Cn1ccnc1CNC(=O)c1ccc(-n2cccn2)c(C#Cc2ccccc2)c1 [TT-02713] here?
Answer: Its IC50 is > 20000 nM.

Question: What about the IC50 [2] of the same compound?
Answer: The IC50 was < 1000 nM.

Question: How did the IC50 [1] turn out when O=C(NCCCc1cn[nH]c1)c1ccc(-n2cccn2)c(C#Cc2ccccc2)c1 [TT-02715] was run?
Answer: The IC50 was < 1000 nM.

Question: What about the IC50 [2] of the same compound?
Answer: Its IC50 is < 1000 nM.

Question: With O=C(NCCCCn1ccnc1)c1ccc(-n2cccn2)c(C#Cc2ccccc2)c1 [TT-02717] as the compound, how does the IC50 [1] read?
Answer: The IC50 was < 1000 nM.

Question: What about the IC50 [2] of the same compound?
Answer: The IC50 was < 1000 nM.

Question: What does the source list for Cn1cnc(CNC(=O)c2ccc(-n3cccn3)c(C#Cc3ccccc3)c2)c1 [TT-02721]?
Answer: IC50 [1]: > 20000 nM; IC50 [2]: > 20000 nM

Question: With O=C(NCCCn1ccnc1)c1ccc(-n2cnnc2)c(C#Cc2ccccc2)c1 [TT-02731] as the compound, how does the IC50 [1] read?
Answer: Its IC50 is < 1000 nM.

Question: What about the IC50 [2] of the same compound?
Answer: The IC50 was < 1000 nM.

Question: Which results are given for Cc1nncn1-c1ccc(C(=O)NCCCn2ccnc2)cc1C#Cc1ccccc1 [TT-02732]?
Answer: IC50 [1]: < 1000 nM; IC50 [2]: < 1000 nM

Question: Which results are given for O=C(NCCCn1ccnc1)c1ccc(Oc2ccccc2)c(C#Cc2ccccc2)c1 [TT-02741]?
Answer: IC50 [1]: < 1000 nM; IC50 [2]: < 1000 nM

Question: For Cc1ccc(C#Cc2cc(C(=O)NCCCn3ccnc3)ccc2-n2cccn2)cc1 [TT-02745], which IC50 [1] is on record?
Answer: The IC50 was < 1000 nM.

Question: What about the IC50 [2] of the same compound?
Answer: Its IC50 is < 1000 nM.

Question: How did the IC50 [1] turn out when O=C(NCCCn1ccnc1)c1ccc(-n2cccn2)c(C#Cc2ccc(F)cc2)c1 [TT-02746] was run?
Answer: Its IC50 is < 1000 nM.

Question: What about the IC50 [2] of the same compound?
Answer: Its IC50 is < 1000 nM.

Question: O=C(NCCCn1ccnc1)c1ccc(-n2cccn2)c(C#Cc2ccc(C(F)(F)F)cc2)c1 [TT-02747] was tested. Which IC50 [1] did it give?
Answer: Its IC50 is 10000 to 20000 nM.

Question: And the IC50 [2]?
Answer: The IC50 was 5000 to 10000 nM.

Question: With O=C(NCCCn1ccnc1)c1ccc(-n2cccn2)c(C#Cc2cccc(Cl)c2)c1 [TT-02749] as the compound, how does the IC50 [1] read?
Answer: The IC50 was < 1000 nM.

Question: What about the IC50 [2] of the same compound?
Answer: The IC50 was < 1000 nM.

Question: With O=C(NCCCn1ccnc1)c1ccc(-n2cccn2)c(C#Cc2ccccc2Cl)c1 [TT-02750] as the compound, how does the IC50 [1] read?
Answer: Its IC50 is < 1000 nM.

Question: What about the IC50 [2] of the same compound?
Answer: The IC50 was < 1000 nM.

Question: With CC1CN(c2ncc(C(=O)NCCCc3cn[nH]c3)cc2C#Cc2ccc(F)cc2)CCN1 (stereo not drawn) [TT-03756] as the compound, how does the IC50 [1] read?
Answer: The IC50 was < 1000 nM.

Question: Which IC50 [1] does the source give for CC1CC(C)CN(c2ncc(C(=O)NCCCc3cn[nH]c3)cc2C#Cc2ccc(F)cc2)C1 (stereo not drawn) [TT-03761] here?
Answer: Its IC50 is < 1000 nM.

Question: Which IC50 [1] does the source give for COC1CCCN(c2ncc(C(=O)NCCCc3cn[nH]c3)cc2C#Cc2ccc(F)cc2)C1 (stereo not drawn) [TT-03762] here?
Answer: The IC50 was < 1000 nM.

Question: O=C(NCCCc1cn[nH]c1)c1cnc(N2CCOCC2)c(C#Cc2ccc(F)cc2)c1 [TT-03767] was tested. Which IC50 [1] did it give?
Answer: The IC50 was < 1000 nM.

Question: For O=C1CN(c2ncc(C(=O)NCCCc3cn[nH]c3)cc2C#Cc2ccc(F)cc2)CCN1 [TT-03768], which IC50 [1] is on record?
Answer: The IC50 was < 1000 nM.

Question: How did the IC50 [1] turn out when CC1CN(c2ncc(C(=O)NCCCc3cn[nH]c3)cc2C#Cc2ccc(F)cc2)CCN1C(=O)OC(C)(C)C (stereo not drawn) [TT-03772] was run?
Answer: The IC50 was < 1000 nM.
